Measurements published in patent US20240016875A1, “SHAN-ZHA FOR THE TREATMENT OF DEPRESSION AND ANXIETY DISORDERS” (THE OPEN UNIVERSITY, priority 2020, published 2024).
Entries after “also recorded” stand apart in the source; their conditions may differ.

How the values were obtained:
[1] = tested on: rab11B gene; assay: Hippocampal RNA-sequencing, gene expression after UCMS; assay type: in vivo; conditions: hippocampus; UCMS mice; Shan-zha 30 mg/kg, escitalopram 15 mg/kg, 3 weeks; vs UCMS-exposed saline treated group
Method: (§1) An Unbiased genome-wide transcriptomic profiling was conducted to reveal alterations in gene expression in the hippocampus induced by treatment. Male ICR mice were subjected to UCMS, after which they were treated with Shan-zha (30 mg/kg), NHT (30 mg/kg), Esciatlopram (15 mg/kg) or saline for 3 weeks. The anxiolytic-like effect of the treatments was verified by EPM. Subsequently, brains were rapidly removed and RNA was isolated from the hippocampus using RNeasy kit (Qiagen). RNA-sequencing (on NGS) and gene expression analysis was conducted. The analysis yielded a wide range of changes in gene expression.
(§2) First, all samples were normalized and clustered in order to verify that there are no noticeable biases based on batches/process/technician/day.. Next, hit maps were generated, in order to observe the global differences between the groups. After which, a PCA analysis was performed to visualize the separation between the samples. Finally, Differential expression analysis with DESE-Q was done, and changes in gene expression of the following genes, which are highly relevant to anxiety, depression or drug-related side effects were followed: […]

[2] = tested on: Ckb gene; assay: as above; assay type: in vivo; conditions: hippocampus; UCMS mice; Shan-zha 30 mg/kg, escitalopram 15 mg/kg, 3 weeks; vs UCMS-exposed saline treated group
Method: as §1, §2

[3] = tested on: dams; assay: EPM in dams after restrain stress during gestation; assay type: in vivo, mice; conditions: PND21, 15 mg/kg s.c. daily PND1-PND21
Method: The EPM task was performed as previously described. Shortly, each mouse was placed in the center of the maze and video recorded for 5 min. Anxiety-like behavior was expressed as the time the mouse spent in the open, unprotected arms of the maze.
Female (n=40) and male (n=5) ICR outbred mice (100 days old; Envigo RMS, Jerusalem, Israel) were housed at 22±1° C. under 12 h light/dark cycles in the vivarium of the Open University lab in Hadassah medical center, Jerusalem. Mice had ad libitum access to rodent chow and water. Mice were housed in standard cages with a bed of woodchips and a piece of cotton wool for enrichment. All experiments were performed during the dark phase of the cycle. Male mice were used to father pups and were housed apart (5 per cage) from females until mating. […] Once a vaginal plug was identified, the females were transferred to a separate cage until parturition. Overall, 455 pups were delivered of which 317 (male: n=165; female: n=152) were designated for this study. Unassessed pups were maintained with littermates to avoid additional stress and ensure similar conditions. […]
Following mating, dams were separated to individual cages and were observed periodically to ensure onset of pregnancy. […] Shortly after, anxiety-like behavior was assessed on the EPM and dams were assigned to treatment group (escitalopram/shan-zha/vehicle). […]

[4] = tested on: stressed mice; assay: Open field test (OFT), locomotor activity, Examples 1-3; assay type: in vivo; conditions: UCMS-stressed male ICR mice; herbs and NHT 30 mg/kg, escitalopram 15 mg/kg i.p., 3 weeks
Method: ICR outbred 28-30 days old male mice (Envigo, Israel) were maintained in the vivarium of the Open University lab in Hadassah Ein Karem medical cement, Jerusalem. Mice were group housed (5 mice per cage) and each cage contained mice from all treatment groups. Mice were given ad libitum access to food and water except during stressor application (with the exclusion of the light/dark cycle reversal). Mice kept on a reversed 12 h light/dark cycle (lights on 7:00 pm-7:00 am) while experimental procedures were performed during the dark phase under red light. All experiments were approved by the Open University of Israel committee for animal care and use. Methods were carried out in accordance with the NIH guidelines.
Crataegus pinnatifida, Triticum aestivum, Lilium brownii and Fructus zizyphi jujuba were purchased as freeze-dried granules (KPC Products, Inc., Irvine, CA, USA). […]
The open field consists of an empty square arena (40×40×40 cm) and surrounded by Perspex opaque walls. Each mouse was placed in the center of the arena and video recorded for 5 min. […] Locomotor activity was expressed as the percentage of time that the mouse was moving in the arena in a velocity above 0.1 pixel/sec. […]

CN(C)CCC[C@@]1(c2ccc(F)cc2)OCc2cc(C#N)ccc21 [escitalopram]
RAB11b gene expression [1]: 0.77 fold change
Ckb gene expression [2]: 0.83 fold change
anxiety-like behavior in the EPM, treated stressed dams vs saline-treated stressed dams ([3]; restrain stress during gestation, 15 mg/kg): saline-treated stressed dams demonstrated elevated anxiety-like behavior compared to both shan-zha- and escitalopram-treated stressed dams; also recorded: the stress-vehicle group demonstrated increased anxiety-like behavior compared to the naïve-vehicle, stress-escitalopram and stress-shan-zha groups
effect of stress manipulation on time spent in open arms within treatment group, dams ([3]; stressed vs naive dams): Stress manipulation did not affect time spent in open arms
locomotor activity in the OFT [4]: No change in locmotor activity
